{"source": "patent US20210106566A1", "about": "“PHARMACEUTICAL COMPOSITION FOR TREATING AND/OR PREVENTING PERIPHERAL NEUROPATHY OR SPINAL CORD INJURY” (NATIONAL UNIVERSITY CORPORATION NAGOYA UNIVERSITY, priority 2015, published 2021)", "key": {"[1]": {"test_system": "mouse sciatic nerve autologous transplantation model", "assay": "Mouse sciatic nerve autologous transplantation model: number and area of myelinated axons", "type": "in vivo", "conditions": "30 mg/kg/day to the stomach, one week after surgery, section 0.7 mm distal to the distal transection site", "source_text": "Adult male C57BL/6J mice (8 weeks old; 19.5-22.0 g) were purchased from Charles River. The mice were anesthetized with isoflurane and underwent gluteal muscle incision under a sterile condition to expose the sciatic nerve in the left leg. The sciatic nerve was cut at the following two sites (1) and (2): (1) the site 3 mm distal to the first bifurcation of biceps femoris (hereinafter referred to as proximal transection site) (2) the site 3 mm distal to the proximal transection site (hereinafter referred to as distal transection site) The excised nerve segment with a length of 3 mm was confirmed to be completely cut at the two sites. The perineurium was sutured with nylon thread (10-0 black) at the proximal transection site and the distal transection site under a microscope. The remaining thread was used as a marker for finding the nerve transection site in the sacrifice of the mice. In order to reduce DMSO toxicity, a solution of 60 mg/mL zonisamide in 100% DMSO was prepared and the solution was diluted in olive oil to give a solution of 3 mg/mL zonisamide in 5% DMSO. […] Myelin sheath formation in the sciatic nerve was analyzed in six mice in each group. […] The number and area of myelinated axons in the sciatic nerve were manually measured using ImageJ software in a blinded fashion."}, "[2]": {"test_system": "mouse sciatic nerve autologous transplantation model", "assay": "Mouse sciatic nerve autologous transplantation model: walking track analysis (SFI)", "type": "in vivo", "conditions": "30 mg/kg/day, 6 to 8 weeks after surgery", "source_text": "Adult male C57BL/6J mice (8 weeks old; 19.5-22.0 g) were purchased from Charles River. The mice were anesthetized with isoflurane and underwent gluteal muscle incision under a sterile condition to expose the sciatic nerve in the left leg. The sciatic nerve was cut at the following two sites (1) and (2): (1) the site 3 mm distal to the first bifurcation of biceps femoris (hereinafter referred to as proximal transection site) (2) the site 3 mm distal to the proximal transection site (hereinafter referred to as distal transection site) The excised nerve segment with a length of 3 mm was confirmed to be completely cut at the two sites. […] Myelin sheath formation in the sciatic nerve was analyzed in six mice in each group. […] The number and area of myelinated axons in the sciatic nerve were manually measured using ImageJ software in a blinded fashion. Motor function was assessed every week in three mice in each group using the walking track analysis. In the walking track analysis, footprints of both hindlimbs were recorded when mice were allowed to walk freely on a runway. Sciatic function index (SFI; Bain et al. Plast Reconstr Surg 83: 129-138 (1989)) was calculated by measuring the width and length of footprints of both legs in a blinded fashion. […] Footprints were recorded on six to eight thin boards."}, "primary motor neurons": {"test_system": "primary motor neurons", "assay": "Neurite outgrowth in primary spinal cord motor neurons", "type": "cell-based, mouse", "experimental": "Primary cultured mouse embryonic spinal cord motor neurons were isolated from spinal cord embryo of C57BL/6J mouse on 13.5th day of embryonic stage (E13.5). Solutions of zonisamide in DMSO were prepared at concentrations from 200 μmol/L to […] and then added to the culture medium to obtain the final concentration of zonisamide from 1 μmol/L to 20 μmol/L. The culture medium contained 0.5% DMSO whether or not it contained zonisamide. The cells were seeded at 4.0×10^3 cells/cm^2 in a 96-well plate (Asahi Techno Glass) coated with poly-L-lysine and laminin and maintained in Sumilon neuron culture medium (Sumitomo Bakelite). After incubation for 2 days, the cells were fixed in PBS with 4% […] at ordinary temperature for 15 minutes. The cells were washed with PBS once, blocked with PBS containing 2% goat serum and 0.1% Triton-X, and immunostained with mouse anti-tau-1 monoclonal antibody (1:500, MAB3420, Millipore) and Alexa Fluor 555-conjugated goat anti-mouse secondary antibody (1:1000, Life Technologies). Neurites were automatically analyzed on ArrayScan VTI HCS Reader. The neurite length and the number of nerve branch points were quantified by evaluating the longer 200 neurites. The ratio of neurite-bearing cells was determined by counting cells having a neurite length of 25 micron or more in each well."}, "[3]": {"conditions": "dose dependency, 1 μmol/L to 20 μmol/L, FIG. 1"}}, "data": [{"molecule": "NS(=O)(=O)Cc1noc2ccccc12", "note": "[Zonisamide, 3-sulfamoylmethyl-1,2-benzisoxazole]", "values": [{"measurement": "area of axons, increase compared to the zonisamide non-administration group", "setting": "[1]", "result": 3.9, "unit": "fold"}, {"measurement": "number of axons", "setting": "[1]", "result": "unchanged"}, {"measurement": "SFI (sciatic function index), motor function of hindlimbs", "setting": "[2]", "result": "dramatically improved"}, {"measurement": "neurite extension of primary motor neurons (screening of the 16 drugs)", "setting": "primary motor neurons; culture for 48 hours, tau staining", "result": "able to extend neurites"}, {"measurement": "axonal growth (average neurite length) in primary motor neurons", "setting": "primary motor neurons; [3]", "result": "dose-dependent axonal growth"}, {"measurement": "number of branch points in axons of primary motor neurons", "setting": "primary motor neurons; [3]", "result": "dose-dependent increase"}, {"measurement": "ratio of neurite-bearing cells in primary motor neurons", "setting": "primary motor neurons; neurite length of 25 micron or more, FIG. 1", "result": "not increased"}]}]}
